Data set [1] relates to intraperitoneal eosinophilia. Nature of the data set: Action on intraperitoneal eosinophilia model mice (sensitized with swine roundworm extract). As to conditions: oral, once a day, 10 times, BALB/c mice. In kind it is in vivo, BALB/c male mice. The protocol:
Using five animals per group of BALB/c male mice (about 25 g in body weight), 0.11 mL of physiological saline containing 0.1 mg of swine roundworm extract was administered into the peritoneal cavity of each mouse to sensitize. The same treatment was repeated 7 days after the administration and, 3 days thereafter, each animal was sacrificed by phlebotomy, 3 mL of physiological saline containing 1% dipotassium ethylenediaminetetraacetate (EDTA) was administered by intraperitoneal injection and its abdominal region was massaged for about 30 seconds. The abdominal region was incised to collect intraperitoneal fluid which was subsequently centrifuged at 130 x g for 10 minutes, and the resulting precipitate was mixed with 500 µl of fetal calf serum containing 1% EDTA to prepare a cell suspension. A portion of the cell suspension was daubed on a slide glass using a spinner to carry out Diff-Quik staining, and then total leukocytes and eosinophils were counted to calculate the ratio of eosinophils in the total leukocytes. The number of total leukocytes in the cell suspension was measured using an automatic blood cell counter. The number of eosinophils in the cell suspension was calculated by multiplying the ratio of eosinophils in the total leukocytes by the number of total leukocytes.
Each of the compounds to be tested was suspended in 5% acacia aqueous solution and orally administered once a day for a total of 10 times starting immediately after the initial sensitization (test compound-administered group). Also, 5% acacia aqueous solution was orally administered to a group of mice in which sensitization and administration of test compounds were not carried out (non-treated group) and another group of mice in which sensitization was carried out but test compounds were not administered (control group).
The dose of each compound to be tested and the intraperitoneal eosinophilia inhibition rate calculated by the following formula are shown in Table 1. Eosinophilia inhibition rate (%) = {1 - (test compound- administered group - non-treated group)/(control group - non- treated group)} x 100 [formula]

The next data set has as its system BALB/c male mice. As to conditions: mouse, in vivo, po, 100 mg/kg/day. From the text:
Toxicity of compounds of the present invention was examined.

`O=C(O)CC(=O)c1cccc2nc(CCc3ccccc3)[nH]c12` [Example 1, 3-(2-(2-phenylethyl)benzimidazol-4-yl)-3-oxopropanoic acid]: the entries for the “Intraperitoneal eosinophilia inhibition rate (%)” value in data set [1] (dose 3 mg/kg/day) and in data set [1] (dose 30 mg/kg/day) were 67% and 78%, respectively. In addition, the mortal case entry in the data set with BALB/c male mice is recorded as “no mortal case was found”.
Turning to `COC(=O)CC(=O)c1cccc2nc(CCc3ccccc3)[nH]c12` [Example 2, methyl 3-(2-(2-phenylethyl)benzimidazol-4-yl)-3-oxopropanoate], in data set [1] (dose 100 mg/kg/day), the “Intraperitoneal eosinophilia inhibition rate (%)” value is recorded as 42%. In the data set on BALB/c male mice, the mortal case entry is “no mortal case was found”.
`CCOC(=O)CC(=O)c1cccc2nc(CCc3ccccc3)[nH]c12` [Example 3, ethyl 3-(2-(2-phenylethyl)benzimidazol-4-yl)-3-oxopropanoate]: the “Intraperitoneal eosinophilia inhibition rate (%)” value came to 67% in data set [1] (dose 10 mg/kg/day) and 75% in data set [1] (dose 30 mg/kg/day).
`COC(=O)CC(O)c1cccc2nc(CCc3ccccc3)[nH]c12` (stereo not drawn) [Example 5, methyl 3-(2-(2-phenylethyl)benzimidazol-4-yl)-3-hydroxypropanoate]: in data set [1] (dose 100 mg/kg/day), the “Intraperitoneal eosinophilia inhibition rate (%)” value is 62%. The mortal case entry in the data set on BALB/c male mice was “no mortal case was found”.
In the case of `CCOC(=O)CC(O)c1cccc2nc(CCc3ccccc3)[nH]c12` (stereo not drawn) [Example 6, ethyl 3-(2-(2-phenylethyl)benzimidazol-4-yl)-3-hydroxypropanoate], the results for the “Intraperitoneal eosinophilia inhibition rate (%)” value in data set [1] (dose 3 mg/kg/day) and in data set [1] (dose 10 mg/kg/day) were 35% and 59%, respectively.
On to `O=C(O)CC(O)c1cccc2nc(CCc3ccccc3)[nH]c12` (stereo not drawn) [Example 7, 3-(2-(2-phenylethyl)benzimidazol-4-yl)-3-hydroxypropanoic acid], for which the “Intraperitoneal eosinophilia inhibition rate (%)” value in data set [1] (dose 0.3 mg/kg/day) turned out to be 55%. Further, the mortal case entry with BALB/c male mice was “no mortal case was found”.
As for `CCOC(=O)CC(=O)c1cccc2c1nc(CCc1ccccc1)n2C` [Example 10, ethyl 3-(1-methyl-2-(2-phenylethyl)benzimidazol-4-yl)-3-oxopropanoate], the mortal case entry with BALB/c male mice was “no mortal case was found”.
As for `CC(=O)OCC(=O)[C@@]1(O)CC[C@H]2[C@@H]3CCC4=CC(=O)C=C[C@]4(C)[C@H]3[C@@H](O)C[C@@]21C` [Prednisolone acetate, 11β,17α,21-trihydroxypregna-1,4-diene-3,20-dione 21-acetate, reference compound], the “Intraperitoneal eosinophilia inhibition rate (%)” value in data set [1] (dose 10 mg/kg/day) is 61 - 85%.

Values taken from patent EP0936218B1, “BENZIMIDAZOLE DERIVATIVES” (MOCHIDA PHARMACEUTICAL CO., LTD., priority 1996, dated 1998).
